Data as given in the NIST ThermoML archive (doi:10.1016/j.fluid.2010.01.023).
Several values for one entry are separate records, joined by “and”; a condition that tells them apart may be missing. Equal values may be shown once.

Assay: xn = mol fraction of the nth substance listed
Conditions: Fluid (supercritical or subcritical phases), quasistatic thermogram and barogram, x2 = 0.7393

N [ammonia] + O
Conditions	thermal pressure coefficient
594.84 K, Mass density=120.03 kg/m3	91 kPa/K
594.84 K, Mass density=147.43 kg/m3	126 kPa/K
595.16 K, Mass density=376.89 kg/m3	205 kPa/K and 295 kPa/K
595.35 K, Mass density=147.43 kg/m3	124 kPa/K
595.35 K, Mass density=456.58 kg/m3	451 kPa/K
595.53 K, Mass density=342.18 kg/m3	199 kPa/K
595.61 K, Mass density=285.71 kg/m3	196 kPa/K
595.78 K, Mass density=309.95 kg/m3	200 kPa/K
595.78 K, Mass density=376.89 kg/m3	296 kPa/K
596.04 K, Mass density=160.07 kg/m3	183 kPa/K
596.04 K, Mass density=227.54 kg/m3	195 kPa/K
596.47 K, Mass density=308.35 kg/m3	205 kPa/K
596.73 K, Mass density=307.35 kg/m3	201 kPa/K
596.9 K, Mass density=271.09 kg/m3	199 kPa/K
597.08 K, Mass density=342.18 kg/m3	198 kPa/K
597.33 K, Mass density=160.07 kg/m3	151 kPa/K
597.33 K, Mass density=311.19 kg/m3	199 kPa/K
597.33 K, Mass density=376.89 kg/m3	306 kPa/K
597.35 K, Mass density=160.07 kg/m3	174 kPa/K and 147 kPa/K
597.42 K, Mass density=295.31 kg/m3	196 kPa/K
597.5 K, Mass density=188.05 kg/m3	187 kPa/K
597.56 K, Mass density=342.18 kg/m3	197 kPa/K and 261 kPa/K
597.59 K, Mass density=218.92 kg/m3	197 kPa/K
597.76 K, Mass density=292.97 kg/m3	199 kPa/K
598.19 K, Mass density=224.53 kg/m3	198 kPa/K
598.28 K, Mass density=376.89 kg/m3	311 kPa/K
598.33 K, Mass density=329 kg/m3	195 kPa/K and 249 kPa/K
598.36 K, Mass density=160.07 kg/m3	140 kPa/K
598.45 K, Mass density=320.33 kg/m3	197 kPa/K
598.54 K, Mass density=297.6 kg/m3	191 kPa/K
598.57 K, Mass density=301.94 kg/m3	199 kPa/K
598.63 K, Mass density=291.16 kg/m3	201 kPa/K
598.71 K, Mass density=297.6 kg/m3	192 kPa/K
598.96 K, Mass density=243.97 kg/m3	201 kPa/K
598.96 K, Mass density=320.33 kg/m3	192 kPa/K and 246 kPa/K
598.97 K, Mass density=376.89 kg/m3	311 kPa/K
599.05 K, Mass density=160.07 kg/m3	139 kPa/K
599.05 K, Mass density=299.79 kg/m3	192 kPa/K
599.05 K, Mass density=329 kg/m3	258 kPa/K
599.14 K, Mass density=160.07 kg/m3	137 kPa/K
599.22 K, Mass density=214.43 kg/m3	201 kPa/K
599.42 K, Mass density=312.91 kg/m3	192 kPa/K and 244 kPa/K
599.44 K, Mass density=320.33 kg/m3	250 kPa/K
599.52 K, Mass density=206.01 kg/m3	198 kPa/K
599.57 K, Mass density=311.19 kg/m3	193 kPa/K and 240 kPa/K
599.57 K, Mass density=456.58 kg/m3	456 kPa/K
599.67 K, Mass density=309.95 kg/m3	192 kPa/K and 236 kPa/K
599.78 K, Mass density=308.35 kg/m3	192 kPa/K and 234 kPa/K
599.89 K, Mass density=307.35 kg/m3	192 kPa/K and 231 kPa/K
599.91 K, Mass density=295.31 kg/m3	196 kPa/K
600.02 K, Mass density=305.44 kg/m3	192 kPa/K and 229 kPa/K
600.17 K, Mass density=195.99 kg/m3	195 kPa/K
600.17 K, Mass density=303.47 kg/m3	192 kPa/K and 229 kPa/K
600.29 K, Mass density=301.94 kg/m3	192 kPa/K and 228 kPa/K
600.48 K, Mass density=299.79 kg/m3	193 kPa/K and 226 kPa/K
600.59 K, Mass density=309.95 kg/m3	248 kPa/K
600.63 K, Mass density=297.6 kg/m3	193 kPa/K and 225 kPa/K
600.68 K, Mass density=230.31 kg/m3	200 kPa/K
600.77 K, Mass density=308.35 kg/m3	240 kPa/K
600.81 K, Mass density=295.31 kg/m3	193 kPa/K and 224 kPa/K
600.93 K, Mass density=292.97 kg/m3	194 kPa/K and 224 kPa/K
600.94 K, Mass density=260.02 kg/m3	193 kPa/K
600.94 K, Mass density=305.44 kg/m3	237 kPa/K
601.02 K, Mass density=291.16 kg/m3	192 kPa/K
601.02 K, Mass density=342.18 kg/m3	281 kPa/K
601.05 K, Mass density=291.16 kg/m3	193 kPa/K and 223 kPa/K
601.11 K, Mass density=320.33 kg/m3	257 kPa/K
601.16 K, Mass density=188.05 kg/m3	186 kPa/K and 168 kPa/K
601.19 K, Mass density=227.54 kg/m3	200 kPa/K
601.28 K, Mass density=214.43 kg/m3	203 kPa/K
601.28 K, Mass density=301.94 kg/m3	234 kPa/K
601.34 K, Mass density=285.71 kg/m3	196 kPa/K and 222 kPa/K
601.37 K, Mass density=206.01 kg/m3	199 kPa/K
601.37 K, Mass density=224.53 kg/m3	201 kPa/K
601.45 K, Mass density=297.6 kg/m3	225 kPa/K
601.45 K, Mass density=299.79 kg/m3	239 kPa/K
601.54 K, Mass density=295.31 kg/m3	238 kPa/K
601.71 K, Mass density=230.31 kg/m3	202 kPa/K
601.71 K, Mass density=376.89 kg/m3	327 kPa/K
601.75 K, Mass density=195.99 kg/m3	195 kPa/K and 181 kPa/K
602.05 K, Mass density=218.92 kg/m3	201 kPa/K
602.05 K, Mass density=271.09 kg/m3	197 kPa/K and 217 kPa/K
602.22 K, Mass density=312.91 kg/m3	261 kPa/K
602.26 K, Mass density=206.01 kg/m3	199 kPa/K and 188 kPa/K
602.31 K, Mass density=307.35 kg/m3	241 kPa/K
602.39 K, Mass density=376.89 kg/m3	320 kPa/K
602.45 K, Mass density=260.02 kg/m3	199 kPa/K and 215 kPa/K
602.65 K, Mass density=456.58 kg/m3	458 kPa/K
602.74 K, Mass density=214.43 kg/m3	202 kPa/K and 195 kPa/K
602.74 K, Mass density=342.18 kg/m3	286 kPa/K
602.85 K, Mass density=218.92 kg/m3	202 kPa/K and 198 kPa/K
602.91 K, Mass density=243.97 kg/m3	202 kPa/K and 208 kPa/K
602.96 K, Mass density=224.53 kg/m3	202 kPa/K and 200 kPa/K
602.96 K, Mass density=230.31 kg/m3	202 kPa/K and 204 kPa/K
602.97 K, Mass density=227.54 kg/m3	202 kPa/K and 203 kPa/K
603.08 K, Mass density=311.19 kg/m3	256 kPa/K
603.34 K, Mass density=206.01 kg/m3	182 kPa/K
603.76 K, Mass density=218.92 kg/m3	196 kPa/K
603.85 K, Mass density=214.43 kg/m3	191 kPa/K
603.85 K, Mass density=227.54 kg/m3	203 kPa/K
604.11 K, Mass density=224.53 kg/m3	200 kPa/K
604.11 K, Mass density=230.31 kg/m3	205 kPa/K
604.36 K, Mass density=243.97 kg/m3	210 kPa/K
605.39 K, Mass density=329 kg/m3	275 kPa/K
605.47 K, Mass density=147.43 kg/m3	120 kPa/K
606.58 K, Mass density=376.89 kg/m3	333 kPa/K
606.76 K, Mass density=195.99 kg/m3	172 kPa/K
607.78 K, Mass density=342.18 kg/m3	290 kPa/K
607.95 K, Mass density=376.89 kg/m3	332 kPa/K
608.04 K, Mass density=309.95 kg/m3	261 kPa/K
608.55 K, Mass density=160.07 kg/m3	131 kPa/K
609.42 K, Mass density=320.33 kg/m3	279 kPa/K
609.48 K, Mass density=195.99 kg/m3	168 kPa/K
609.71 K, Mass density=308.35 kg/m3	272 kPa/K
609.99 K, Mass density=295.31 kg/m3	250 kPa/K
610.25 K, Mass density=312.91 kg/m3	270 kPa/K
610.59 K, Mass density=311.19 kg/m3	265 kPa/K
610.85 K, Mass density=307.35 kg/m3	266 kPa/K
611.44 K, Mass density=299.79 kg/m3	257 kPa/K
611.55 K, Mass density=342.18 kg/m3	299 kPa/K
611.61 K, Mass density=230.31 kg/m3	209 kPa/K
611.61 K, Mass density=301.94 kg/m3	259 kPa/K
612.63 K, Mass density=376.89 kg/m3	342 kPa/K
615.35 K, Mass density=160.07 kg/m3	131 kPa/K
616.03 K, Mass density=311.19 kg/m3	277 kPa/K
616.12 K, Mass density=312.91 kg/m3	269 kPa/K
616.28 K, Mass density=309.95 kg/m3	261 kPa/K
616.37 K, Mass density=329 kg/m3	285 kPa/K
617.05 K, Mass density=299.79 kg/m3	260 kPa/K
618.4 K, Mass density=342.18 kg/m3	304 kPa/K
620.1 K, Mass density=297.6 kg/m3	260 kPa/K
624.91 K, Mass density=160.07 kg/m3	132 kPa/K
633.33 K, Mass density=160.07 kg/m3	134 kPa/K
